The record followed here is patent US8293231B2, “Methods and compositions for treating ischemia” (Blue Blood Biotech Corp., priority 2005, dated 2012).

In experiment [1] the test system is ERK1/2, p38 MAPK, Akt, and eNOS phosphorylation in HUVECs. The experiment in a line: Assay of ERK1/2, p38 MAPK, Akt and eNOS phosphorylation (Western blotting). Format: cell-based, human. How it is done: HUVECs were cultured to confluence in a 6-cm-diameter dish and incubated in M199 containing 1% FBS for 18 h. Cells were washed and incubated with serum-free M199 for 6 h, and treated with the indicated concentration of TMD23. Cell lysates were separated by SDS-PAGE, and the levels of phospho-ERK1/2 (Tyr 204) and total ERK1/2, phospho-p38 (Thr-180/Tyr-182) and p38, phosphor-Akt (Ser-473) and Akt, and phospho-eNOS (Ser-1173) and eNOS were detected by Western blotting with specific antibodies (Cell Signaling Technology).
In general terms: A western blot detects proteins with antibodies after separation by electrophoresis.

The subject of experiment [2] is Matrigel plugs in FVB mice. Briefly: Murine angiogenesis assay (Matrigel plug). It counts as in vivo. How it is done:
To assess angiogenic effects in vivo, growth-factor-reduced liquid Matrigel (0.5 mL) containing heparin (60 U/mL) and various concentrations of TMD23, bFGF or VEGF was subcutaneously injected into FVB mice near the abdominal midline. Matrigel with PBS plus heparin served as the negative control, with bFGF and VEGF plus heparin as the positive control. Four days after injection, mice were sacrificed and Matrigel plugs were surgically removed. For macroscopic analysis of angiogenesis, hemoglobin content in Matrigel was measured using Drabkin reagent 525 (Sigma-Aldrich). For histological analysis, rat anti-mouse CD31 (PECAM-1, platelet endothelial cell adhesion molecule-1) antibody (Pharmingen) was used. The same specimens were used for hematoxylin and eosin (H&E) staining.

Experiment [3] concerns Matrigel plugs in FVB mice. Briefly: Murine angiogenesis assay (Matrigel plug). Format: in vivo. The source holds these as a separate data set.

As to “TMD23: Recombinant human thrombomodulin fragment, amino acids Ala242-Ser515 of SEQ ID NO: 2: six EGF-like structures (D2) plus Ser/Thr-rich domain D3”, in experiment [1] (FIG. 3B), the “Time of maximal phosphorylation (ERK, p38, and Akt)” value is “about 30 min”; the “Time of maximal phosphorylation (eNOS)” value is reported as ~120 min. Besides, in experiment [1] (total proteins remained constant, FIG. 3A), the “ERK1/2, p38, Akt, and eNOS phosphorylation in HUVECs” value was “dose-dependently induced”. Further, the “Induction of in vivo angiogenesis compared with TMD2” value in experiment [2] (Matrigel plug assay) is reported as “more effective than TMD2”. Besides, the “Histology of Matrigel plugs (H&E, anti-mouse CD31)” value in experiment [2] (TMD23 and heparin) was “Capillary-like structures were found”. Further, the “Vascularization of Matrigel plugs” value in experiment [2] (all TMD23 concentrations, plus heparin) is “Intense vascularization”. In experiment [2] (day 4, plus heparin (30 U), TMD23 10, 100, or 1,000 ng, bFGF 250 ng, VEGF 50 ng), the “Appearance of Matrigel plugs, with heparin” value is “bright red”. Also, in experiment [2] (gels supplemented with both angiogenic factor and heparin), the “Magnitude of angiogenic reaction with heparin versus without” value is given as “considerably greater”. For the same substance, the “Hemoglobin content of recovered Matrigel plugs” value in experiment [2] (plus heparin, compared with controls) is “significantly increased”. In addition, in experiment [3], the “Appearance of Matrigel plugs, without heparin” value is listed as “pale”.
